System: SEM cells
Assay: cell viability relative to DMSO control; higher = less cytotoxic
Details: 48 h
How it was run: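 NOMO1 or SEM cells were plated at 500 cells/well and P12-Ichikawa cells at 1000 cells/well in 1536-well plates (5 μl), after each leukemia line had been adapted for at least four passages in each medium. Pin dosing delivered library compounds in DMSO at 11 threefold concentrations, 47 μM to 0.79 nM. CellTiter-Glo One luminescence was read after 48 h at 37°C. Viability is reported as a per-plate percentage of DMSO wells, with cell-free wells as background.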

[1] = HPLM + 10% dialyzed FBS, 0.000781 µM
[2] = HPLM + 10% dialyzed FBS, 0.00234 µM
[3] = HPLM + 10% dialyzed FBS, 0.00702 µM
[4] = HPLM + 10% dialyzed FBS, 0.0211 µM
[5] = HPLM + 10% dialyzed FBS, 0.0632 µM
[6] = HPLM + 10% dialyzed FBS, 0.19 µM
[7] = HPLM + 10% dialyzed FBS, 0.569 µM
[8] = HPLM + 10% dialyzed FBS, 1.71 µM
[9] = HPLM + 10% dialyzed FBS, 5.12 µM
[10] = HPLM + 10% dialyzed FBS, 15.4 µM
[11] = HPLM + 10% dialyzed FBS, 46.1 µM
[12] = RPMI 5 mM glucose + 10% FBS, 0.000781 µM
[13] = RPMI 5 mM glucose + 10% FBS, 0.00234 µM
[14] = RPMI 5 mM glucose + 10% FBS, 0.00702 µM
[15] = RPMI 5 mM glucose + 10% FBS, 0.0211 µM
[16] = RPMI 5 mM glucose + 10% FBS, 0.0632 µM
[17] = RPMI 5 mM glucose + 10% FBS, 0.19 µM
[18] = RPMI 5 mM glucose + 10% FBS, 0.569 µM
[19] = RPMI 5 mM glucose + 10% FBS, 1.71 µM
[20] = RPMI 5 mM glucose + 10% FBS, 5.12 µM
[21] = RPMI 5 mM glucose + 10% FBS, 15.4 µM
[22] = RPMI 5 mM glucose + 10% FBS, 46.1 µM
[23] = RPMI 5 mM glucose + 10% dialyzed FBS, 0.000781 µM
[24] = RPMI 5 mM glucose + 10% dialyzed FBS, 0.00234 µM
[25] = RPMI 5 mM glucose + 10% dialyzed FBS, 0.00702 µM
[26] = RPMI 5 mM glucose + 10% dialyzed FBS, 0.0211 µM
[27] = RPMI 5 mM glucose + 10% dialyzed FBS, 0.0632 µM
[28] = RPMI 5 mM glucose + 10% dialyzed FBS, 0.19 µM
[29] = RPMI 5 mM glucose + 10% dialyzed FBS, 0.569 µM
[30] = RPMI 5 mM glucose + 10% dialyzed FBS, 1.71 µM
[31] = RPMI 5 mM glucose + 10% dialyzed FBS, 5.12 µM
[32] = RPMI 5 mM glucose + 10% dialyzed FBS, 15.4 µM
[33] = RPMI 5 mM glucose + 10% dialyzed FBS, 46.1 µM

Structure (SMILES) | cell viability [1] | cell viability [2] | cell viability [3] | cell viability [4] | cell viability [5] | cell viability [6] | cell viability [7] | cell viability [8] | cell viability [9] | cell viability [10] | cell viability [11] | cell viability [12] | cell viability [13] | cell viability [14] | cell viability [15] | cell viability [16] | cell viability [17] | cell viability [18] | cell viability [19] | cell viability [20] | cell viability [21] | cell viability [22] | cell viability [23] | cell viability [24] | cell viability [25] | cell viability [26] | cell viability [27] | cell viability [28] | cell viability [29] | cell viability [30] | cell viability [31] | cell viability [32] | cell viability [33]
C[N]1C=NC=C1[C@@](N)(C2=CC=C(Cl)C=C2)C3=CC=C4N(C)C(=O)\C=C(\C5=CC=CC(=C5)Cl)C4=C3 | 112% | 126% | 111% | 103% | 65.5% | 53.1% | 50.7% | 48.5% | 49.2% | 39.8% | 28.6% | 105% | 116% | 109% | 101% | 72.2% | 43.9% | 51.7% | 43.7% | 40.6% | 33.9% | 13.6% | 105% | 102% | 97.9% | 108% | 98.5% | 71% | 65.9% | 62.8% | 55% | 49.7% | 22.3%
NC(=O)N1c2ccccc2CC(=O)c2ccccc21 | – | – | – | – | – | – | – | – | – | – | – | 124% | 135% | 121% | 132% | 126% | 123% | 139% | 137% | 137% | 161% | 142% | 110% | 116% | 114% | 117% | 129% | 118% | 105% | 124% | 122% | 123% | 147%
FC(F)(F)c1ccc(Nc2nc3cc(Oc4ccnc(-c5ncc(C(F)(F)F)[nH]5)c4)ccc3[nH]2)cc1 | 108% | 97.7% | 112% | 116% | 121% | 117% | 118% | 121% | 106% | 82.7% | 18.4% | 120% | 114% | 117% | 113% | 125% | 117% | 100% | 120% | 114% | 80.8% | 4.03% | – | – | – | – | – | – | – | – | – | – | –
O=C(NC1CCNCC1)c1n[nH]cc1NC(=O)c1c(Cl)cccc1Cl | 93% | 95.9% | 103% | 127% | 118% | 119% | 98.8% | 16.4% | 7.23% | 5.22% | 3.82% | – | – | – | – | – | – | – | – | – | – | – | 108% | 97.6% | 126% | 115% | 118% | 121% | 129% | 24.6% | 7.87% | 5.31% | 3.76%
COc1cc2ncnc(-n3nc(-c4ccccn4)nc3N)c2cc1OC | 75.1% | 95.7% | 96.7% | 94.2% | 94.9% | 103% | 79.3% | 83.7% | 35% | 45% | 1.68% | 105% | 103% | 114% | 100% | 85.8% | 106% | 91.2% | 39.1% | 3.56% | 1.61% | 1.33% | 83.2% | 93.8% | 95.1% | 85.7% | 81.9% | 99.8% | 83.6% | 65.7% | 9.89% | 11.4% | 1.21%
CCC[C@@H]1C[C@@H](C(=O)N[C@@H]([C@H]2O[C@H](SC)[C@H](O)[C@@H](O)[C@H]2O)[C@@H](C)O)N(C)C1.Cl | 125% | 121% | 118% | 109% | 119% | 127% | 114% | 122% | 103% | 117% | 91% | 110% | 114% | 105% | 99.3% | 120% | 110% | 130% | 111% | 111% | 111% | 97.4% | 113% | 119% | 141% | 118% | 136% | 133% | 132% | 137% | 125% | 104% | 116%
COC1=CC=C2Nc3cc(Cl)ccc3C(N=C3C=C(CN4CCCC4)C(=O)C(CN4CCCC4)=C3)=C2N1 | 90.6% | 113% | 103% | 105% | 107% | 101% | 106% | 111% | 117% | 61.5% | 7.01% | 107% | 112% | 120% | 110% | 115% | 110% | 121% | 113% | 121% | 79% | 50.3% | 83.1% | 108% | 108% | 102% | 102% | 115% | 115% | 80.4% | 105% | 56.4% | 24%
O=C/1\C=C(/OC(=C1)/C2=C3SC4=C(SC3=CC=C2)C=CC=C4)N5CCOCC5 | 74.3% | 84.1% | 92.6% | 21.5% | 99.7% | 105% | 102% | 104% | 96.3% | 90.3% | 86.7% | 85.8% | 92.7% | 101% | 15.8% | 109% | 117% | 108% | 105% | 106% | 105% | 112% | 91.5% | 87.6% | 88% | 15.5% | 93% | 99.1% | 96% | 108% | 91.4% | 85.5% | 91.3%
CCNC(=O)C[C@@H]1\N=C(C2=CC=C(Cl)C=C2)/C3=C(C=CC(=C3)OC)[N]4C(=NN=C14)C | – | – | – | – | – | – | – | – | – | – | – | – | – | – | – | – | – | – | – | – | – | – | 106% | 114% | 107% | 105% | 91.1% | 90.2% | 63.8% | 42.9% | 19.6% | 6.54% | 3.14%
COc1cc(N2CCC(C(N)=O)CC2)ccc1Nc1nc(N)c(Cl)c(Nc2ccccc2[S+](=O)([O-])C(C)C)n1 | 81.4% | 83.3% | 87.8% | 96.1% | 82.2% | 104% | 97.6% | 84.1% | 66.5% | 13.3% | 3.39% | 103% | 109% | 107% | 104% | 97.6% | 108% | 120% | 92.9% | 43% | 6.28% | 3.46% | 74.8% | 85.1% | 94.3% | 76.9% | 88.5% | 88.8% | 99.4% | 86% | 69% | 13.2% | 2.73%

Source: the supplement of paper PMC11451515
